Source: PubChem BioAssay (NCI)
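A five-concentration, 48-hour dose response in 96-well plates underlies each endpoint, interpolated linearly between surrounding concentrations. GI50 = concentration required for 50% inhibition of growth. TGI: total growth inhibition.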

What was measured:
Experiment in all cases: NCI anticancer screen, dose series, 48 h
BT-549 breast = test system: BT-549 breast
NCI-H460 lung = test system: NCI-H460 lung
CCRF-CEM leukemia = test system: CCRF-CEM leukemia
UO-31 renal = test system: UO-31 renal
LOX IMVI melanoma = test system: LOX IMVI melanoma
RXF 393 renal = test system: RXF 393 renal
OVCAR-3 ovarian = test system: OVCAR-3 ovarian
UACC-257 melanoma = test system: UACC-257 melanoma
A498 renal = test system: A498 renal
OVCAR-5 ovarian = test system: OVCAR-5 ovarian
NCI-H226 lung = test system: NCI-H226 lung
SW-620 colon = test system: SW-620 colon
IGROV1 ovarian = test system: IGROV1 ovarian
OVCAR-4 ovarian = test system: OVCAR-4 ovarian
RPMI-8226 leukemia = test system: RPMI-8226 leukemia
SF-268 CNS = test system: SF-268 CNS
COLO 205 colon = test system: COLO 205 colon
MDA-MB-231 breast = test system: MDA-MB-231 breast
HOP-92 NSCLC = test system: HOP-92 NSCLC
T-47D breast = test system: T-47D breast
HOP-62 NSCLC = test system: HOP-62 NSCLC
U251 CNS = test system: U251 CNS
MCF7 breast = test system: MCF7 breast
CAKI-1 renal = test system: CAKI-1 renal
TK-10 renal = test system: TK-10 renal
SK-MEL-2 melanoma = test system: SK-MEL-2 melanoma
MOLT-4 leukemia = test system: MOLT-4 leukemia
PC-3 prostate = test system: PC-3 prostate
NCI-H522 lung = test system: NCI-H522 lung
HCT-116 colon = test system: HCT-116 colon
HT29 colon = test system: HT29 colon
K-562 leukemia = test system: K-562 leukemia
SNB-75 CNS = test system: SNB-75 CNS
SF-539 CNS = test system: SF-539 CNS
A549 NSCLC = test system: A549 NSCLC
OVCAR-8 ovarian = test system: OVCAR-8 ovarian
MDA-MB-435 = test system: MDA-MB-435
NCI/ADR-RES ovarian = test system: NCI/ADR-RES ovarian
HL-60(TB) leukemia = test system: HL-60(TB) leukemia
HCC-2998 colon = test system: HCC-2998 colon
SK-OV-3 ovarian = test system: SK-OV-3 ovarian
SK-MEL-5 melanoma = test system: SK-MEL-5 melanoma
DU-145 prostate = test system: DU-145 prostate
UACC-62 melanoma = test system: UACC-62 melanoma
M14 melanoma = test system: M14 melanoma
MALME-3M melanoma = test system: MALME-3M melanoma
NCI-H23 lung = test system: NCI-H23 lung
HS 578T breast = test system: HS 578T breast
SNB-19 CNS = test system: SNB-19 CNS
SF-295 CNS = test system: SF-295 CNS
SN12C renal = test system: SN12C renal
786-0 renal = test system: 786-0 renal
SK-MEL-28 melanoma = test system: SK-MEL-28 melanoma
ACHN renal = test system: ACHN renal
SR leukemia = test system: SR leukemia
KM12 colon = test system: KM12 colon
HCT-15 colon = test system: HCT-15 colon

OCc1ccc(N(Cc2ccc(F)cc2)CC2CC2)cc1Cl
GI50 (BT-549 breast): 14.3 µM
TGI (BT-549 breast): 28.2 µM
GI50 (NCI-H460 lung): 0.57 µM
TGI (NCI-H460 lung): 9.47 µM
GI50 (CCRF-CEM leukemia): 15.6 µM
TGI (CCRF-CEM leukemia): 39.9 µM
GI50 (UO-31 renal): 3.43 µM
TGI (UO-31 renal): 15.6 µM
GI50 (LOX IMVI melanoma): 13.2 µM
TGI (LOX IMVI melanoma): 26.3 µM
GI50 (RXF 393 renal): 1.29 µM
TGI (RXF 393 renal): 8.48 µM
GI50 (OVCAR-3 ovarian): 1.31 µM
TGI (OVCAR-3 ovarian): 4.94 µM
GI50 (UACC-257 melanoma): 0.228 µM
TGI (UACC-257 melanoma): 1.03 µM
GI50 (A498 renal): 0.0363 µM
TGI (A498 renal): 0.154 µM
GI50 (OVCAR-5 ovarian): 0.191 µM
TGI (OVCAR-5 ovarian): 0.794 µM
GI50 (NCI-H226 lung): 0.0419 µM
TGI (NCI-H226 lung): 0.0943 µM
GI50 (SW-620 colon): 2.38 µM
TGI (SW-620 colon): 16.2 µM
GI50 (IGROV1 ovarian): 0.176 µM
TGI (IGROV1 ovarian): 1.19 µM
GI50 (OVCAR-4 ovarian): 0.511 µM
TGI (OVCAR-4 ovarian): 7.34 µM
GI50 (RPMI-8226 leukemia): 5.47 µM
TGI (RPMI-8226 leukemia): 36 µM
GI50 (SF-268 CNS): 14.7 µM
TGI (SF-268 CNS): 28.7 µM
GI50 (COLO 205 colon): 5.4 µM
TGI (COLO 205 colon): 17.4 µM
GI50 (MDA-MB-231 breast): 11.5 µM
TGI (MDA-MB-231 breast): 24.3 µM
GI50 (HOP-92 NSCLC): 1.61 µM
TGI (HOP-92 NSCLC): 11.3 µM
GI50 (T-47D breast): 0.271 µM
TGI (T-47D breast): 2.86 µM
GI50 (HOP-62 NSCLC): 3.09 µM
TGI (HOP-62 NSCLC): 16.2 µM
GI50 (U251 CNS): 1.48 µM
TGI (U251 CNS): 14 µM
GI50 (MCF7 breast): 0.585 µM
TGI (MCF7 breast): 12.6 µM
GI50 (CAKI-1 renal): 6.54 µM
TGI (CAKI-1 renal): 21.9 µM
GI50 (TK-10 renal): 0.0609 µM
TGI (TK-10 renal): 0.398 µM
GI50 (SK-MEL-2 melanoma): 5.39 µM
TGI (SK-MEL-2 melanoma): 19 µM
GI50 (MOLT-4 leukemia): 13.7 µM
TGI (MOLT-4 leukemia): 34.9 µM
GI50 (PC-3 prostate): 12.1 µM
TGI (PC-3 prostate): 25.7 µM
GI50 (NCI-H522 lung): 11.5 µM
TGI (NCI-H522 lung): 26.3 µM
GI50 (HCT-116 colon): 0.254 µM
TGI (HCT-116 colon): 11 µM
GI50 (HT29 colon): 6.49 µM
TGI (HT29 colon): 20.3 µM
GI50 (K-562 leukemia): 3.12 µM
TGI (K-562 leukemia): 17.8 µM
GI50 (SNB-75 CNS): 10.8 µM
TGI (SNB-75 CNS): 23.1 µM
GI50 (SF-539 CNS): 14.7 µM
TGI (SF-539 CNS): 28.2 µM
GI50 (A549 NSCLC): 3.16 µM
TGI (A549 NSCLC): 16.9 µM
GI50 (OVCAR-8 ovarian): 11.8 µM
TGI (OVCAR-8 ovarian): 25.3 µM
GI50 (MDA-MB-435): 15.7 µM
TGI (MDA-MB-435): 31.2 µM
GI50 (NCI/ADR-RES ovarian): 12.1 µM
TGI (NCI/ADR-RES ovarian): 28.8 µM
GI50 (HL-60(TB) leukemia): 5.06 µM
TGI (HL-60(TB) leukemia): 26.3 µM
GI50 (HCC-2998 colon): 8.82 µM
TGI (HCC-2998 colon): 22.4 µM
GI50 (SK-OV-3 ovarian): 10.6 µM
TGI (SK-OV-3 ovarian): 22.7 µM
GI50 (SK-MEL-5 melanoma): 3.72 µM
TGI (SK-MEL-5 melanoma): 16.6 µM
GI50 (DU-145 prostate): 13.3 µM
TGI (DU-145 prostate): 26.4 µM
GI50 (UACC-62 melanoma): 0.263 µM
TGI (UACC-62 melanoma): 1.74 µM
GI50 (M14 melanoma): 14.5 µM
TGI (M14 melanoma): 29.8 µM
GI50 (MALME-3M melanoma): 14.6 µM
TGI (MALME-3M melanoma): 29.9 µM
GI50 (NCI-H23 lung): 4.74 µM
TGI (NCI-H23 lung): 20.2 µM
GI50 (HS 578T breast): 14.7 µM
TGI (HS 578T breast): 38.9 µM
GI50 (SNB-19 CNS): 12.3 µM
TGI (SNB-19 CNS): 25.4 µM
GI50 (SF-295 CNS): 1.2 µM
TGI (SF-295 CNS): 11.7 µM
GI50 (SN12C renal): 9.04 µM
TGI (SN12C renal): 21.8 µM
GI50 (786-0 renal): 6.8 µM
TGI (786-0 renal): 21.3 µM
GI50 (SK-MEL-28 melanoma): 13.1 µM
TGI (SK-MEL-28 melanoma): 25.9 µM
GI50 (ACHN renal): 11.7 µM
TGI (ACHN renal): 24 µM
GI50 (SR leukemia): 13.4 µM
TGI (SR leukemia): 34 µM
GI50 (KM12 colon): 12.9 µM
TGI (KM12 colon): 25.8 µM
GI50 (HCT-15 colon): 10.3 µM
TGI (HCT-15 colon): 22.9 µM
